The values below come from paper PMC6131539, “Behavioral Effects of a Potential Novel TAAR1 Antagonist” (Frontiers in Pharmacology, 2018).

The test system of experiment [1] is C57BL/6J mice. The experiment is described as follows: Amphetamine-induced locomotor activity, co-injection, C57BL/6J mice. The experiment is classed as in vivo. Conditions: 60 min. The method, then: (§1) Experimentally naïve mice, of at least 12 weeks of age, were used for all behavioral experiments. The mice were randomly assigned to treatment or control groups, balanced by sex and weight. Locomotor activity was assessed using the automated locomotor analysis monitors (Omnitech Electronics, Columbus, OH, United States). The apparatus included four open field monitors. Each Open Field monitor consisted of sets of 16 light beams arrayed in the horizontal X and Y axes. The hardware detected beams broken by the animal, which allowed the software to determine the location of the mouse in the cage. Total distance covered by mice was used to characterize locomotor activity of the animals. The monitors were divided into four compartments (20 cm × 20 cm). Animals were tested individually for defined periods with 5-min intervals. The mice were first weighed and then placed into the apparatus, allowing for 30 min habituation. Following the habituation, the mice were removed from the al apparatus and injected with drugs (see below for administration) or vehicle and returned immediately to the locomotor chamber. The locomotor activity was then measured for additional 1 h. After the experiments, the animals were euthanized by cervical dislocation.
All drug solutions were prepared freshly on the day of the experiment and injected i.p. at the volume of 10 ml/kg. […] Amphetamine was dissolved in 0.9% saline at a concentration of 0.2 mg/mL.
The effect of compound 22 (5, 15, 20, 30, and 50 mg/kg) on locomotor activity, in mice, in combination to a single, sub-maximal dose of amphetamine (2 mg/kg) was carried out (Figure 2). […] Although not significant, there was a trend toward an increase in locomotor activity at the dose of 5 mg/kg as well (28% increase, p = 0.32).
FIGURE 2 In vivo studies with compound 22 co-injected with amphetamine in WT mice. Wild type C57BL/6J mice were first habituated for 30 min followed by the co-injection of amphetamine (2 mg/kg) and saline or compound 22 at doses 5, 15, 20, 25, 30, and 50 mg/kg. The locomotor activity was assessed for 60 min after the injection. (A) Locomotor activity over time for 2 mg/kg amphetamine only or co-injected with 5, 15, or 20 mg/kg compound 22; (B) locomotor activity over time for 2 mg/kg amphetamine only or co-injected with 30 or 50 mg/kg compound 22; (C) sum of locomotor activity over 60 min after the injection of amphetamine and compound 22. Data are means ± SEM; N = 12–18 for compound 22 treated alone and N = 66 for amphetamine treated alone. A one way ANOVA was performed [F(5,126) = 4.788, p = 0.0005] followed by Dunnett’s post hoc analyses (^∗p < 0.05, ^∗∗∗p < 0.001).

Experiment [2] concerns C57BL/6J mice. The experiment is described as follows: Stereotypic counts, co-injection with cocaine, C57BL/6J mice. The experiment is classed as in vivo. The following applies: 5 and 25 mg/kg co-injected with cocaine 10 mg/kg; sum over 60 min.
Experiment [3] concerns TAAR1-KO mice. Put plainly: Amphetamine-induced locomotor activity, co-injection, TAAR1-KO mice. The experiment is classed as in vivo. The following applies: 15 mg/kg co-injected with amphetamine 2 mg/kg, p = 0.004. The procedure: The Taarl^-/- (TAAR1-KO) mice were obtained from Lundbeck ([Wolinsky et al., 2007]). All wild type (WT) and TAAR1-KO mice used for experiments were generated from TAAR1-KO heterozygous mice in a C57BL/6J x 129S1/Sv mixed background.
as §1, with “chamber.” for “chamber. The locomotor activity was then measured for additional 1 h. After the experiments, the animals were euthanized by cervical dislocation.”

For experiment [4], the system named is WT littermates (C57BL/6J x 129S2/Sv). The experiment is described as follows: Stereotypic counts, co-injection with amphetamine, WT littermates. The following applies: any dose (2.5, 5, 15 mg/kg) co-injected with amphetamine 2 mg/kg. The experiment is classed as in vivo, mice. The method, then:
as §1, with “Following the habituation, the mice were removed from the al apparatus and injected with drugs (see below for administration) or vehicle and returned immediately to the locomotor chamber.” left out, “After the experiments, the animals were euthanized by cervical dislocation.” left out
(§2) Supplementary file Image_2.TIF: FIGURE S2 In vivo studies with TAAR1-KO mice and compound 22 on stereotypic counts activity. […] The sum of stereotypic counts was assessed over 60 min after the injection of amphetamine and compound 22 in WT (solid bars) or TAAR1-KO mice (spotted bars). […] The sum of stereotypic counts was assessed over 60 min following the injection in WT (solid bars) or TAAR1-KO mice (dotted bars). […]

The subject of experiment [5] is TAAR1-KO mice. Put plainly: Stereotypic counts, co-injection with cocaine, TAAR1-KO mice. The experiment is classed as in vivo. Conditions: 5, 15 and 25 mg/kg co-injected with cocaine 10 mg/kg. The procedure: as §1, with “Following the habituation, the mice were removed from the al apparatus and injected with drugs (see below for administration) or vehicle and returned immediately to the locomotor chamber.” left out, “After the experiments, the animals were euthanized by cervical dislocation.” left out
as §2

The subject of experiment [6] is WT littermates (C57BL/6J x 129S2/Sv). Put plainly: Stereotypic counts, co-injection with cocaine, WT littermates. The experiment is classed as in vivo, mice. The following applies: 15 and 25 mg/kg co-injected with cocaine 10 mg/kg. The method, then: as §1, with “Following the habituation, the mice were removed from the al apparatus and injected with drugs (see below for administration) or vehicle and returned immediately to the locomotor chamber.” left out, “After the experiments, the animals were euthanized by cervical dislocation.” left out
as §2

The test system of a further experiment is TAAR1. Also noted: method as in Lam et al., 2015b. Conditions: previous study; ref Lam et al., 2015b; read-out: IC50 (TAAR1 antagonist); cited from earlier work.

Bounds are passed on as bounds.

Usually IC50 stands for the concentration at which inhibition is half-maximal. For the molecule `Clc1ccc(CNCc2ccc(Cn3cncn3)cc2)c(Cl)c1` [compound 22], the “increase in amphetamine-stimulated locomotor activity” value was found to be 28% in the experiment with C57BL/6J mice [1] (5 mg/kg i.p. co-injected with amphetamine 2 mg/kg, not significant, p = 0.32); 44% in the experiment on C57BL/6J mice [1] (15 mg/kg i.p. co-injected with amphetamine 2 mg/kg, p = 0.04); 57% with C57BL/6J mice [1] (20 mg/kg i.p. co-injected with amphetamine 2 mg/kg, p = 0.02); 77% in the experiment with C57BL/6J mice [1] (30 mg/kg i.p. co-injected with amphetamine 2 mg/kg, p = 0.0009). Besides, in the experiment on C57BL/6J mice [1] (50 mg/kg i.p. co-injected with amphetamine 2 mg/kg), the “change in amphetamine-stimulated locomotor activity” value was “no difference in locomotor activity”. The stereotypic counts result is listed as “increase in stereotypic counts” in the experiment on C57BL/6J mice [2], “did not have statistically enhanced stereotypic counts” in experiment [4], “significant increases in stereotypic counts” with TAAR1-KO mice [5] and “enhanced stereotypic counts” in experiment [6]. The “potentiation of locomotor stimulating effects of amphetamine” value in the experiment on TAAR1-KO mice [3] amounted to 84%. In addition, the IC50 in the experiment with TAAR1 was greater than 100 µM.
